Experiments:
Jurkat = experiment: MTT growth inhibition, Jurkat; assay type: cell-based, human; conditions: Jurkat cells, 72 hrs (Table 5)
Procedure: (§1) The growth inhibitory effects of avicin D and oxetane derivative were measured using the MTT [3-(4,5-dimethylthiazol-2-yl)-2,5-diphenyl tetrazolium bromide] reduction assay as described in Haridas et al. (2001). Cells were cultured with varying concentrations of avicin D or oxetane in 96-well plates for 72 hrs at 37° C. At the end of 72 hrs, cells were stained with MTT for 2 hrs and then incubated with lysis buffer (20% SDS in 50% N,N-dimethylformamide) for another 6 hrs. Optical density at 570 nm was used as a measure of cell viability.
(§2) The cell lines 769P, A498, CAKI-1, and CAKI-2 are derived from primary human renal-cell cancers (RCC). A549 is a human lung adenocarcinoma epithelial cell line. B16F10 is a mouse melanoma cell line. BT474, BT 474 M1, BT549, MCF7, […], and ZR751 are breast cancer cell lines. CCRF-CEM, Jurkat, and MOLT4 are leukemia cell lines. HELA is cell line derived from cervical caner. HepG2 is a human hepatocellular liver carcinoma cell line. JeKo-1 is a mantle cell lymphoma (MCL) cell line. LnCAP is a cell line was established from a metastatic lesion of human prostatic adenocarcinoma. MM.1 and RPMI-8226 are human multiple myeloma cell lines. OVCAR3 and SKOV3 are ovarian cancer cell lines. Panc-1 is a pancreatic cancer cell line. PC3 is a prostate cancer cell line. Raji is a Burkitt's lymphoma cell line. RL is a non-Hodgkin's lymphoma cell line. […]

HS27 = experiment: MTT growth inhibition, HS27; assay type: cell-based; conditions: HS27 human foreskin fibroblast cells, 72 hrs
Procedure: as §1, §2

RPMI 8226 = experiment: MTT growth inhibition, RPMI 8226; assay type: cell-based, human; conditions: RPMI 8226 cells, 72 hrs
Procedure: as §1, §2

CAKI-2 = experiment: MTT growth inhibition, CAKI-2; assay type: cell-based, human; conditions: CAKI-2 cells, 72 hrs
Procedure: as §1, §2

3T3-L1 cells = conditions: cited from earlier work
OVCAR3 = experiment: MTT growth inhibition, OVCAR3; assay type: cell-based; conditions: OVCAR3 cells, 72 hrs
Procedure: as §1, §2

JEKO-1 = experiment: MTT growth inhibition, JEKO-1; assay type: cell-based; conditions: JEKO-1 cells, 72 hrs
Procedure: as §1, §2

Raji = experiment: MTT growth inhibition, Raji; assay type: cell-based; conditions: Raji cells, 72 hrs
Procedure: as §1, §2

MINO = experiment: MTT growth inhibition, MINO; assay type: cell-based; conditions: MINO cells, 72 hrs
Procedure: as §1, §2

A549 = experiment: MTT growth inhibition, A549; assay type: cell-based, human; conditions: A549 cells, 72 hrs
Procedure: as §1, §2

HepG2 = experiment: MTT growth inhibition, HepG2; assay type: cell-based, human; conditions: HepG2 cells, 72 hrs
Procedure: as §1, §2

[1] = tested on: Jurkat (human T-cell leukemia) cells; experiment: Reduction in cell viability, Jurkat cells (Table 6); assay type: cell-based; conditions: 50% reduction in cell viability
Excerpt: The IC50 values indicate the concentrations of avicin D/compound 8 required to induce a 50% reduction in call viability. These studies were done in Jurkat (human T-cell leukemia) cells and have been described previously in Haridas et al., 2001, which is incorporated herein by reference.

[2] = tested on: PKA-mediated CREB activity; conditions: cited from earlier work
BT549 = experiment: MTT growth inhibition, BT549; assay type: cell-based; conditions: BT549 cells, 72 hrs
Procedure: as §1, §2

U2OS = experiment: MTT growth inhibition, U2OS; assay type: cell-based, human; conditions: U2OS cells, 72 hrs
Procedure: as §1, §2

LnCAP = experiment: MTT growth inhibition, LnCAP; assay type: cell-based, human; conditions: LnCAP cells, 72 hrs
Procedure: as §1, §2

BT474 M1 = experiment: MTT growth inhibition, BT474 M1; assay type: cell-based; conditions: BT474 M1 cells, 72 hrs
Procedure: as §1, §2

IL-6 = IL-6 expression, constitutive and TNF-induced (FIG. 2B); assay type: cell-based
CCRF-CEM = experiment: MTT growth inhibition, CCRF-CEM; assay type: cell-based; conditions: CCRF-CEM cells, 72 hrs
Procedure: as §1, §2

[3] = tested on: p(IL6-κB)350hu.IL6P-Luc in HEK 293T cells; experiment: TNF-induced NF-κB luciferase reporter in HEK 293T cells with and without GR (FIG. 3); assay type: cell-based
Excerpt: However, TNF-induced activation of p(IL6-κB)350hu.IL6P-Luc was inhibited by both avicin D and Dex in HEK 293T cells transfected with GR (FIG. 3). […] This observation supports the notion that avicins are not able to induce GR transactivation.

MOLT4 = experiment: MTT growth inhibition, MOLT4; assay type: cell-based; conditions: MOLT4 cells, 72 hrs
Procedure: as §1, §2

3T3 L1 = experiment: MTT growth inhibition, 3T3 L1; assay type: cell-based; conditions: 3T3 L1 fibroblast cells, 72 hrs
Procedure: as §1, §2

BT474 = experiment: MTT growth inhibition, BT474; assay type: cell-based; conditions: BT474 cells, 72 hrs
Procedure: as §1, §2

NF-κB = experiment: Inhibition of NF-κB activation (FIG. 2A); assay type: cell-based; conditions: compared with dexamethasone
CAKI-1 = experiment: MTT growth inhibition, CAKI-1; assay type: cell-based, human; conditions: CAKI-1 cells, 72 hrs
Procedure: as §1, §2

GM0131 = experiment: MTT growth inhibition, GM0131; assay type: cell-based; conditions: GM0131 wild type human fibroblast cells, 72 hrs
Procedure: as §1, §2

PC3 = experiment: MTT growth inhibition, PC3; assay type: cell-based; conditions: PC3 cells, 72 hrs
Procedure: as §1, §2

Nrf2 = Nrf2 activation, ARE-driven luciferase in Hep G2 cells; assay type: cell-based, human; conditions: Hep G2 cells transfected with hARE-luc, luciferase activity
Procedure: Activation of Nrf2 was assessed by measuring the antioxidant response element (ARE)-mediated gene expression as described previously by Haridas et al., 2004, which is incorporated herein by reference. Briefly, ARE is a cis-acting regulatory sequence identified in the promoter region of several genes encoding phase 2 detoxification enzymes, that binds to Nrf2. Hep G2 (human hepatocarcinoma) cells were transfected with a human ARE-driven luciferase (luc) containing plasmid, hARE-luc. Following exposure to avicin D/compound 8, the luciferase activity induced in these cells was measured using a dual-luciferase assay kit (Promega) according to the manufacturer's protocol.

Q: For `C=C[C@](C)(O)CC/C=C(\CO)C(=O)O[C@H]1[C@H](O)[C@@H](O)[C@H](O[C@@](C)(C=C)CC/C=C(\CO)C(=O)O[C@H]2C[C@]3(C(=O)O[C@@H]4O[C@H](CO)[C@@H](O)[C@H](O)[C@H]4O[C@@H]4O[C@@H](C)[C@H](O[C@@H]5O[C@@H](CO)[C@H](O)[C@H]5O)[C@@H](O[C@@H]5O[C@H](CO)[C@@H](O)[C@H](O)[C@H]5O)[C@H]4O)[C@H](O)C[C@]4(C)C(=CC[C@@H]5[C@@]6(C)CC[C@H](O[C@@H]7O[C@H](CO[C@@H]8O[C@H](C)[C@H](O)[C@H](O)[C@H]8O[C@@H]8OC[C@@H](O)[C@H](O)[C@H]8O)[C@@H](O)[C@H](O)[C@H]7NC(C)=O)C(C)(C)[C@@H]6CC[C@]54C)[C@@H]3CC2(C)C)O[C@@H]1C` [Avicin D], which IC50 (Jurkat) is on record?
A: Its IC50 is 170 nM.

Q: What about the IC50 (HS27) of the same compound?
A: Its IC50 is 6100 nM.

Q: What about the IC50 (RPMI 8226) of the same compound?
A: Its IC50 is 300 nM.

Q: And the IC50 (CAKI-2)?
A: Its IC50 is 2060 nM.

Q: And the adipogenesis (3T3-L1 cells)?
A: The adipogenesis was “inhibit adipogenesis”.

Q: What about the intracellular triglyceride level (3T3-L1 cells) of the same compound?
A: Its intracellular triglyceride level is “reduce intracellular triglyceride level in a dose-dependent manner”.

Q: What about the IC50 (OVCAR3) of the same compound?
A: Its IC50 is 1300 nM.

Q: What about the IC50 (JEKO-1) of the same compound?
A: The IC50 was 420 nM.

Q: What about the IC50 (Raji) of the same compound?
A: The IC50 was 1270 nM.

Q: What about the IC50 (MINO) of the same compound?
A: Its IC50 is 420 nM.

Q: And the IC50 (A549)?
A: Its IC50 is 6900 nM.

Q: And the IC50 (HepG2)?
A: The IC50 was 440 nM.

Q: What about the IC50 [1] of the same compound?
A: The IC50 was 180 nM.

Q: What about the “PKA-mediated CREB activity” value [2] of the same compound?
A: The value was “inhibited PKA-mediated CREB activity”.

Q: And the IC50 (BT549)?
A: The IC50 was 4800 nM.

Q: And the IC50 (U2OS)?
A: The IC50 was 4400 nM.

Q: And the IC50 (LnCAP)?
A: Its IC50 is 470 nM.

Q: And the IC50 (BT474 M1)?
A: Its IC50 is 1100 nM.

Q: And the “expression of IL-6” value (IL-6)?
A: Its value is “suppresses the expression of both constituitive and TNF-induced IL-6”.

Q: What about the IC50 (CCRF-CEM) of the same compound?
A: Its IC50 is 5500 nM.

Q: And the “TNF-induced activation of p(IL6-κB)350hu.IL6P-Luc” value ([3]; HEK 293T cells transfected with GR)?
A: The value was “inhibited”.

Q: What about the luciferase activity ([3]; wild type HEK 293T cells (no GR)) of the same compound?
A: The luciferase activity was “neither avicin D nor dexamethasone had an effect”.

Q: What about the IC50 (MOLT4) of the same compound?
A: The IC50 was 320 nM.

Q: What about the IC50 (3T3 L1) of the same compound?
A: Its IC50 is 3800 nM.

Q: And the IC50 (BT474)?
A: The IC50 was 2800 nM.

Q: What about the “activation of NF-κB” value (NF-κB) of the same compound?
A: Its value is “inhibits activation of NF-κB”.

Q: And the IC50 (CAKI-1)?
A: Its IC50 is 1120 nM.

Q: And the IC50 (GM0131)?
A: The IC50 was 30100 nM.

Q: What about the IC50 (PC3) of the same compound?
A: Its IC50 is 440 nM.

Q: And the “Fold Nrf2 activation” value (Nrf2)?
A: The value was 2.10.

— patent publication US9175030B2, “Derivatives of avicin D and methods of making and using thereof” (priority 2012, dated 2015)
